This experiment has as its target T1, RSK2 (Homo sapiens, UniProt P51812).
T1 construct: gene RPS6KA3
Put plainly: in vitro kinase assay with recombinant active RSK2 and ATF1 substrate (Western blot); supported by pull-down of recombinant RSK2 with carnosol-Sepharose 4B beads. The format is biochemical.

These results are taken from article PMC6188138, “Carnosol suppresses patient-derived gastric tumor growth by targeting RSK2” (Oncotarget, 2018).

Molecules are shown by their SMILES.

T1 sequence (P51812 whole entry): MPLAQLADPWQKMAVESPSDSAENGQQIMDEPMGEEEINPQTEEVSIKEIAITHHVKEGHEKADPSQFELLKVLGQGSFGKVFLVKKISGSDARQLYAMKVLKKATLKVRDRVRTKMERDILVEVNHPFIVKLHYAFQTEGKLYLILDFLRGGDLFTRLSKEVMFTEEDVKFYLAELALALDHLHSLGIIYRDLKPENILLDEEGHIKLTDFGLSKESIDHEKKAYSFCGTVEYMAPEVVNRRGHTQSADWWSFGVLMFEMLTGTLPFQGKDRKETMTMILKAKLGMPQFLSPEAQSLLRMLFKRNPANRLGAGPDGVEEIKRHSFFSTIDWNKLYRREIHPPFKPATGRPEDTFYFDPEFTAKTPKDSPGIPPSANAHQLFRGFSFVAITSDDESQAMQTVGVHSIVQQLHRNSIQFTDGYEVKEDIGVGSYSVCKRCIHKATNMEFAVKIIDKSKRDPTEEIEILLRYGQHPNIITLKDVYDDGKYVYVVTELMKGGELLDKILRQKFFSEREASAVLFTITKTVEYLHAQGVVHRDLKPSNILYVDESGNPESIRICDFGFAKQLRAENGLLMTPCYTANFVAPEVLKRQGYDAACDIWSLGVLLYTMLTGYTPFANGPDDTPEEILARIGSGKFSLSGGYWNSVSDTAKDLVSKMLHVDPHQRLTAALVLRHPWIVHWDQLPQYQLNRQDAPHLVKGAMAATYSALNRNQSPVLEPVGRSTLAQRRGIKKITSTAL

As a reminder, the IC50 is the concentration that inhibits the measured activity by half. With `CC(C)c1cc2c(c(O)c1O)[C@@]13CCCC(C)(C)[C@@H]1C[C@@H]2OC3=O` [Carnosol], the IC50 was roughly 5.5 µM.
